Source: the NIST ThermoML archive (doi:10.1016/j.jct.2017.05.001)

Test: wn = mass fraction of the nth substance listed
Conditions: Liquid; for mass density: Vibrating tube method

OCCNCCO [diethanolamine] + O
viscosity [mPa·s]
Conditions | w1 = 0.0993 | w1 = 0.1 | w1 = 0.2 | w1 = 0.3 | w1 = 0.3002 | w1 = 0.3997 | w1 = 0.4
293.15 K, 100 kPa, Concentric cylinders viscometry | – | 1.486 | 2.287 | 3.621 | – | – | 6.311
293.15 K, 100 kPa, Falling or rolling sphere viscometry | 1.493 | – | 2.219 | – | 3.633 | 6.248 | –
293.15 K, 5000 kPa, Falling or rolling sphere viscometry | 1.49 | – | 2.215 | – | 3.617 | 6.351 | –
293.15 K, 10000 kPa, Falling or rolling sphere viscometry | 1.486 | – | 2.214 | – | 3.635 | 6.416 | –
293.15 K, 15000 kPa, Falling or rolling sphere viscometry | 1.49 | – | 2.217 | – | 3.634 | 6.463 | –
293.15 K, 20000 kPa, Falling or rolling sphere viscometry | 1.487 | – | 2.217 | – | 3.661 | 6.534 | –
293.15 K, 25000 kPa, Falling or rolling sphere viscometry | 1.488 | – | 2.218 | – | 3.676 | 6.598 | –
293.15 K, 30000 kPa, Falling or rolling sphere viscometry | 1.487 | – | 2.22 | – | 3.688 | 6.6 | –
293.15 K, 40000 kPa, Falling or rolling sphere viscometry | 1.486 | – | 2.221 | – | 3.714 | 6.683 | –
293.15 K, 60000 kPa, Falling or rolling sphere viscometry | 1.487 | – | 2.242 | – | 3.766 | 6.853 | –
293.15 K, 80000 kPa, Falling or rolling sphere viscometry | 1.49 | – | 2.26 | – | 3.818 | 6.973 | –
293.15 K, 100000 kPa, Falling or rolling sphere viscometry | 1.494 | – | 2.277 | – | 3.874 | 7.169 | –
313.15 K, 100 kPa, Concentric cylinders viscometry | – | 0.914 | 1.343 | 1.977 | – | – | 3.197
313.15 K, 100 kPa, Falling or rolling sphere viscometry | 0.9237 | – | 1.304 | – | 1.98 | 3.168 | –
313.15 K, 5000 kPa, Falling or rolling sphere viscometry | 0.915 | – | 1.292 | – | 1.976 | 3.174 | –
313.15 K, 10000 kPa, Falling or rolling sphere viscometry | 0.9172 | – | 1.296 | – | 1.983 | 3.222 | –
313.15 K, 15000 kPa, Falling or rolling sphere viscometry | 0.9188 | – | 1.301 | – | 1.993 | 3.248 | –
313.15 K, 20000 kPa, Falling or rolling sphere viscometry | 0.9192 | – | 1.303 | – | 2.004 | 3.239 | –
313.15 K, 25000 kPa, Falling or rolling sphere viscometry | 0.9215 | – | 1.309 | – | 2.012 | 3.28 | –

mass density [kg/m3]
Conditions | w1 = 0.0993 | w1 = 0.2 | w1 = 0.3002 | w1 = 0.3997
293.15 K, 100 kPa | 1009.4 | 1021.6 | 1034.5 | 1047.5
293.15 K, 500 kPa | 1009.5 | 1021.7 | 1034.7 | 1047.7
293.15 K, 1000 kPa | 1009.7 | 1021.9 | 1034.8 | 1047.9
293.15 K, 2000 kPa | 1010.2 | 1022.3 | 1035.2 | 1048.2
293.15 K, 5000 kPa | 1011.4 | 1023.5 | 1036.3 | 1049.3
293.15 K, 10000 kPa | 1013.6 | 1025.5 | 1038.2 | 1051
293.15 K, 15000 kPa | 1015.6 | 1027.4 | 1040 | 1052.8
293.15 K, 20000 kPa | 1017.7 | 1029.4 | 1041.8 | 1054.5
293.15 K, 30000 kPa | 1021.8 | 1033.3 | 1045.4 | 1058
293.15 K, 40000 kPa | 1025.9 | 1037 | 1049 | 1061.4
293.15 K, 50000 kPa | 1029.7 | 1040.7 | 1052.5 | 1064.7
293.15 K, 60000 kPa | 1033.6 | 1044.4 | 1055.9 | 1068
293.15 K, 70000 kPa | 1037.6 | 1048 | 1059.3 | 1071.2
293.15 K, 80000 kPa | 1041.1 | 1051.4 | 1062.5 | 1074.3
293.15 K, 90000 kPa | 1044.8 | 1054.9 | 1065.8 | 1077.4
293.15 K, 100000 kPa | 1048.5 | 1058.4 | 1069.1 | 1080.6
293.15 K, 110000 kPa | 1051.9 | 1061.6 | 1072.1 | 1083.5
293.15 K, 120000 kPa | 1055.4 | 1064.9 | 1075.3 | 1086.5
293.15 K, 130000 kPa | 1059 | 1068.3 | 1078.5 | 1089.6
293.15 K, 140000 kPa | 1062.2 | 1071.4 | 1081.4 | 1092.4
313.15 K, 100 kPa | 1002.9 | 1014.3 | 1026 | 1038
313.15 K, 500 kPa | 1003.1 | 1014.4 | 1026.2 | 1038.2
313.15 K, 1000 kPa | 1003.4 | 1014.6 | 1026.4 | 1038.4
313.15 K, 2000 kPa | 1003.7 | 1015 | 1026.7 | 1038.7
313.15 K, 5000 kPa | 1005 | 1016.2 | 1027.9 | 1039.8
313.15 K, 10000 kPa | 1007 | 1018.2 | 1029.7 | 1041.7
313.15 K, 15000 kPa | 1009 | 1020.1 | 1031.6 | 1043.4
313.15 K, 20000 kPa | 1011 | 1022 | 1033.4 | 1045.1
